Here are results for seven molecules from US9119806B2, “Culturing circular ssDNA viruses for the production of vaccines” (priority 2007, dated 2015).

Experiment [1] has as its system PCV2 infection of PK-15 cells. Nature of the experiment: Number of PCV2-infected PK-15 cells (IPMA) with endosomal-lysosomal acidification inhibitors with or without IFN-gamma. It counts as cell-based, Porcine circovirus 2. Particulars: for effect on PCV2 infection in IFN-gamma treated cells (in words): PK-15 pre-treated with 500 U/ml IFN-gamma 24 hours; for effect on PCV2 infection in IFN-gamma treated cells (in words) / effect on PCV2 infection compared to control (in words): inhibitor 24 hours after inoculation, 36 hpi; for effect on PCV2 infection compared to control (in words): PK-15 without IFN-gamma; for highest concentration exerting maximal effect without affecting cell viability (chosen): two-fold dilution in PK-15 cells, Stoon-1010. Here is the method:
Endosomal-lysosomal system acidification was inhibited using lysosomotropic weak bases (ammonium chloride and chloroquine diphosphate) and carboxylic ionophore monensin. All chemical compounds were purchased from Sigma. In a first set of experiments, a two-fold dilution of each inhibitor in PK-15 cells using Stoon-1010 was performed to determine the highest concentration of each inhibitor that exerted the maximal effect without affecting cell viability. Finally, 25 mM ammonium chloride, 125 μM chloroquine diphosphate and 6 μM monensin were chosen. PK-15 cells were cultivated for 24 hours and then inoculated with a dose of PCV2 for 1 hour at 37° C. The viral inoculum was washed-off and cells were further incubated in culture medium with or without inhibitors of endosomal-lysosomal acidification for 24 hours. Then, the culture medium containing endosomal-lysosomal system inhibitors was replaced with fresh culture medium without inhibitors. After the first cycle of PCV2 replication, at 36 hpi, cells were fixed with methanol at −20° C. for 10 minutes. Cells were stored at −20° C. until they were stained using an immunoperoxidase monolayer assay (IPMA) as described by Sanchez et al. (2003, Vet Microbiol 95, 15-25).
PK-15 cells were pre-treated with or without 500 U/ml IFN-gamma for 24 hours before they were inoculated with the same dose of PCV2 for 1 hour at 37° C. The viral inoculum was washed-off and cells were further incubated in culture medium containing inhibitors of endosomal-lysosomal acidification for 24 hours. Then, the culture medium containing endosomal-lysosomal system inhibitors was replaced with fresh culture medium without inhibitors. After the first cycle of PCV2 replication, at 36 hours post-inoculation cells were fixed with methanol at −20° C. for 10 minutes. Cells were stored at −20° C. until they were stained using an immunoperoxidase monolayer assay (IPMA) as described above. The number of infected cells per well in mock-treated cells inoculated with an equal dose of PCV2 as treated cells was used as the referent, and all results are expressed as a percentage of this referent. All experiments were performed three times, and each condition in a single experiment was performed in duplicate.

Experiment [2] concerns PCV2 strain Stoon-1010 in PK-15 cells. Nature of the experiment: Progeny PCV2 production in PK-15 cells with acidification inhibitors and/or IFN-gamma. The experiment is classed as cell-based, Porcine circovirus 2. The protocol: For progeny virus production assays, 2×10^5 cells were seeded in every well of 24-well cell culture plates. Cells were pre-treated with or without 500 U/ml IFN-gamma at 6 hours post seeding. At 24 h post-seeding, cells were washed and inoculated with the prototype PCV2 strain Stoon-1010 at an m.o.i. of 0.3 for 1 hour at 37° C. The viral inoculum was washed-off and cells were further incubated in 1 ml of culture medium with or without 25 mM ammonium chloride, 125 μM chloroquine diphosphate and/or 6 μM monensin for 24 hours. Then, the culture medium with or without endosomal-lysosomal system acidification inhibitors was replaced with fresh culture medium without inhibitors. At 1, 24, 48 and 72 hours post-inoculation the supernatant was collected. Subsequently the culture was washed once with 1 ml PBS. Both the supernatant and the washing fluid were centrifuged for 10 minutes at 15,000×g to pellet cells and debris. The centrifuged supernatant and washing fluids were combined and considered to contain the extracellular virus. Both pellets and cell cultures were freeze-thawed three times and considered to contain the intracellular virus. Intra- and extracellular virus titres were determined by titration on PCV-negative PK-15 cells as described previously. Viral antigens were detected using an IPMA as described above and PCV2 titre was expressed as log10 TCID50 per 10^5 cells.

The subject of experiment [3] is PCV2 (field strain Imp-1121). Nature of the experiment: PCV2 replication in inoculated pigs given IFN-gamma or ConA. The experiment is classed as in vivo. Particulars: pigs inoculated at 19 days of age; samples 10, 15, 21 days post inoculation. Here is the method:
Pigs are inoculated with PCV2 (field strain Imp-1121) at 19 days of age. These inoculated pigs are divided in 3 groups. One group contains control pigs (only PCV2). The second group of pigs receives recombinant IFN-gamma (100,000 U per pig every three days). The third group contains pigs that receive ConA (1.5 mg/kg every three days). At different times post inoculation (10, 15, 21 days) samples are collected and the replication of the virus is assessed.

The test system of experiment [4] is PCV2-infected PK-15 cells. In words: Number of PCV2-infected PK-15 cells (IPMA) after treatment with cytokines or natural cytokine sources. It counts as cell-based, Porcine circovirus 2. The conditions noted are these: PK-15 cells; cytokine dilution series, before, during or after inoculation; 36 h. Here is the method: PK-15 cells were seeded and maintained in culture medium containing 5%-10% fetal bovine serum (FBS), 0.3 mg/ml glutamine, 100 U/ml penicillin, 0.1 mg/ml streptomycin, 0.1 mg/ml kanamycin dissolved in minimal essential medium (MEM) (Gibco BRL®, Grand Island, USA) or dissolved in RPMI-1640 (GIBCO BRL®, Grand Island, USA) containing 1% nonessential amino acids (100×; GIBCO BRL®, Grand Island, USA) and 1 mM sodium pyruvate (GIBCO BRL®, Grand Island, USA). Cells were seeded at a concentration of 150,000 cells per ml of medium. For the detection of total viral antigen positive cells, the cells were seeded in 96-well microtiter plates (Nunc) (15,000-20,000 cells per well). To detect the expression of specific viral antigens, cells were seeded on sterile cover slips in Leighton tubes (150,000 cells per tube) and finally progeny virus production assays were performed in 24-well plates containing […].
(§1) In order to use cells, more related to the target cells in vivo, the monocytic cell line 3D4/31 was used to confirm the effect of the different cytokines on the number of PCV2-infected cells. The 3D4/31 cell line is a porcine monomyeloid cell lines that was established following transfection of primary porcine alveolar macrophage cultures with plasmid pSV3neo, carrying genes for neomycin resistance and SV40 large T antigen. (Weingartl et al. (2002) J Virol Methods. 10, 203-216). These cells were maintained in a 1:1 mixture of RPMI-1640 (Invitrogen) and DMEM (Invitrogen) supplemented with 10% fetal bovine serum, 0.3 mg/ml glutamine, 100 U/ml penicillin, 0.1 mg/ml streptomycin, 0.1 mg/ml kanamycin and 1% non-essential amino acids 100× (GIBCO BRL®, Grand Island, USA). These experiments were also performed in 96-well plates containing the same number of cells. Furthermore, to monitor the effect of IFN-gamma on the entry of PCV2 virion-like particles was determined, 3D4/31 cells were seeded at 2×10^5 cells/ml of medium onto microscopic slides mounted with an 8 well cell culture silicone chamber (Vivascience AG, Hanover). In all inoculations, the same PCV2-strain (Stoon-1010) was used at a multiplicity of infection of 0.01. The virus was diluted in MEM and inoculated on the cell cultures by incubating cells and virus for 1 hour at 37° C. After 1 hour, the inoculum was removed, the cultures were washed twice with MEM and new culture medium was added.
(§2) The influence of the cytokines on the infection of PCV2 in PK-15 and 3D4/31 cells was determined by adding two-fold-dilution series of the cytokines to the medium of the cells before, during or after the inoculation. IL-1, IL-6, […] and IFN-alpha were used in concentrations ranging from 0.25-250 Units/ml (U/ml), IFN-gamma was used in concentrations ranging from 0.25-1000 U/ml and IL-10 was used in concentrations from 0.13-125 U/ml. Cell cultures were either pre-treated with the cytokines for 24 hours before inoculation, treated during the inoculation or the cytokines were added in the medium after the inoculation. After 36 hours of incubation at 37° C. in an environment supplemented with 5% CO2, the cells were fixed by drying and frozen at −20° C. The plates were stained with an immuno-peroxydase monolayer assay (IPMA) as described by Sanchez et al. (2003, Vet Microbiol 95, 15-25) and the number of PCV2-positive cells was counted by light microscopy. In each plate a control was inoculated with an equal dose of mock-treated PCV2 (treated with MEM without cytokines). The number of infected cells in this well was used as the reference and all results were expressed as a ratio to this reference.
Two-fold dilutions of the BAL-fluids of the PRCV and mock-inoculated pigs were added to the medium of PCV2-inoculated PK-15 cells after inoculation. Concentrations of the added BAL-fluids ranged from 1.25 to 5%. Supernatants of ConA and mock-stimulated PBMC's were also added to the culture medium of PK-15 cells after inoculation in concentrations ranging from […] to 50%. […]

In experiment [5] the test system is PCV2-infected 3D4/31 cells. Nature of the experiment: Number of PCV2-infected 3D4/31 cells (IPMA) after cytokine treatment. The conditions noted are these: 3D4/31 cells; any concentration, before, during or after inoculation. The experiment is classed as cell-based, Porcine circovirus 2.
Description: as §1, §2

The mark [6] stands for this setting: IFN-gamma 500 U/ml pre-treatment.

With `Cl.N` [Ammonium chloride, ammonium chloride], in experiment [1], the “effect on PCV2 infection in IFN-gamma treated cells (in words)” value is given as “enhanced PCV2 infection”, the “effect on PCV2 infection compared to control (in words)” value is given as “enhance PCV2 infection” and the “highest concentration exerting maximal effect without affecting cell viability (chosen)” value was 25000 µM. In experiment [2] (IFN-gamma 0 U/ml), the “PCV2 titres at 1 hpi” value is listed as 2.1 TCID50 per 10^5 cells, the “PCV2 titres at 24 hpi” value was 1.9 TCID50 per 10^5 cells, the “PCV2 titres at 48 hpi” value worked out at 3.0 TCID50 per 10^5 cells and the “PCV2 titres at 72 hpi” value was 3.8 TCID50 per 10^5 cells. For the same molecule, in experiment [2] (setting [6]), the “PCV2 titres at 1 hpi” value stood at 1.6 TCID50 per 10^5 cells, the “PCV2 titres at 24 hpi” value came to 3.0 TCID50 per 10^5 cells, the “PCV2 titres at 48 hpi” value is recorded as 4.0 TCID50 per 10^5 cells and the “PCV2 titres at 72 hpi” value is given as 4.8 TCID50 per 10^5 cells.
For `CCN(CC)CCCC(C)Nc1ccnc2cc(Cl)ccc12` (stereo not shown) [Chloroquine diphosphate, chloroquine diphosphate], in experiment [1], the “effect on PCV2 infection in IFN-gamma treated cells (in words)” value is recorded as “enhanced PCV2 infection”, the “effect on PCV2 infection compared to control (in words)” value is “enhance PCV2 infection” and the “highest concentration exerting maximal effect without affecting cell viability (chosen)” value was found to be 125 µM. Further, in experiment [2] (IFN-gamma 0 U/ml), the “PCV2 titres at 1 hpi” value is recorded as 1.4 TCID50 per 10^5 cells, the “PCV2 titres at 24 hpi” value turned out to be 1.8 TCID50 per 10^5 cells, the “PCV2 titres at 48 hpi” value is reported as 3.3 TCID50 per 10^5 cells and the “PCV2 titres at 72 hpi” value was 4.3 TCID50 per 10^5 cells. Moreover, in experiment [2] (setting [6]), the “PCV2 titres at 1 hpi” value was determined as 1.6 TCID50 per 10^5 cells, the “PCV2 titres at 24 hpi” value amounted to 2.3 TCID50 per 10^5 cells, the “PCV2 titres at 48 hpi” value was 4.0 TCID50 per 10^5 cells and the “PCV2 titres at 72 hpi” value is 4.6 TCID50 per 10^5 cells.
Regarding concanavalin A [ConA], in experiment [3], the “replication of PCV2 compared to control pigs (in words)” value is on record as “increase in the replication of PCV2”.
TNF-alpha: the figures for the “change in the number of PCV2-positive cells (in words)” value (from here on “change in the number”) in experiment [4] and in experiment [5] were “no significant change” and “did not induce a significant change”, respectively.
With `CC[C@@]1([C@@H]2O[C@@H]([C@H]3O[C@@](O)(CO)[C@H](C)C[C@@H]3C)C[C@@H]2C)CC[C@H]([C@]2(C)CC[C@]3(C[C@H](O)[C@@H](C)[C@@H]([C@@H](C)[C@@H](OC)[C@H](C)C(=O)O)O3)O2)O1` [Monensin, monensin], in experiment [1], the “effect on PCV2 infection in IFN-gamma treated cells (in words)” value is given as “enhanced PCV2 infection”, the “effect on PCV2 infection compared to control (in words)” value is recorded as “enhance PCV2 infection” and the “highest concentration exerting maximal effect without affecting cell viability (chosen)” value was determined as 6 µM. In experiment [2] (IFN-gamma 0 U/ml), the “PCV2 titres at 1 hpi” value is 1.9 TCID50 per 10^5 cells, the “PCV2 titres at 24 hpi” value is listed as 2.3 TCID50 per 10^5 cells, the “PCV2 titres at 48 hpi” value turned out to be 3.9 TCID50 per 10^5 cells and the “PCV2 titres at 72 hpi” value turned out to be 3.6 TCID50 per 10^5 cells. Further, in experiment [2] (setting [6]), the “PCV2 titres at 1 hpi” value amounted to 2.0 TCID50 per 10^5 cells, the “PCV2 titres at 24 hpi” value was 2.8 TCID50 per 10^5 cells, the “PCV2 titres at 48 hpi” value is on record as 4.6 TCID50 per 10^5 cells and the “PCV2 titres at 72 hpi” value is reported as 4.8 TCID50 per 10^5 cells.

B1: IL-6: Porcine interleukin 6 (R&D systems) (protein, UniProt P26893 30-212, looked up)
Interleukin-6: ERLEEDAKGDATSDKMLFTSPDKTEELIKYILGKISAMRKEMCEKYEKCENSKEVLAENNLNLPKMAEKDGCFQSGFNQETCLMRITTGLVEFQIYLDYLQKEYESNKGNVEAVQISTKALIQTLRQKGKNPDKATTPNPTTNAGLLDKLQSQNEWMKNTKIILILRSLEDFLQFSLRAIRIM
Regarding B1, the “change in the number” value in experiment [4] is “no significant change”; in experiment [5], “did not induce a significant change”.

B2: IL-10: Porcine interleukin 10 (R&D systems) (protein, UniProt Q29055 19-175, looked up)
Interleukin-10: SIKSENSCIHFPTSLPHMLRELRAAFGPVKSFFQTKDQMGDLLLTGSLLEDFKGYLGCQALSEMIQFYLEDVMPKAESDGEDIKEHVNSLGEKLKTLRLRLRRCHQFLPCENKSKAVEEVKSAFSKLQERGVYKAMGEFDIFINYIEAYMTMKMRKN
Turning to B2, the “change in the number” value in experiment [4] is given as “no significant change”; in experiment [5], “did not induce a significant change”.
